From patent publication US20100016352A1, “COMPOUNDS AND METHODS FOR TREATING ESTROGEN RECEPTOR-RELATED DISEASES” (priority 2008, published 2010)

Experiments:
[1] = system: Human Breast Cancer BCAP-37 Cells xenografts; assay: In vivo efficacy in inhibiting growth of human breast cancer BCAP-37 cells xenografts in nude mice; settings: Mus musculus, Bcap37, po, 360 h; female nude mice, BCAP-37 xenograft, 35 mg/kg fed once every day for 15 days, tumor weight vs olive oil negative control; read-out: Inhibition rate of tumor growth (%)
Experimental: The In Vivo Efficacy in Inhibiting Growth of Human Breast Cancer BCAP-37 Cells Xenografts in Nude Mice Model
Nude mice with breast cancer xenografts are treated with the test compounds 5, 6, 8, 14, 22, 36 and 38 to test their effect on inhibiting tumor growth. Tumor tissues are taken from nude mice bearing BCAP-37 breast cancer and cut into small pieces. Several pieces of the tumor tissues are implanted into the armpit under the right front limb of female nude mice. After the implantation, the mice are fed with E2β solution once every day at the dosage of 7 μg per mouse for 6 days to stimulate tumor growth in the receiving mice. Starting on the seventh day, the mice are fed with the test compounds at the dosage of 35 mg/kg. Tamoxifen is used as a positive control. Olive oil is used as a negative control. The test compounds are prepared as an olive oil solution (20 mg/mL). The mice are given the test compounds and Tamoxifen at the dosage of 35 mg/kg or olive oil once every day for 15 days. Then the mice are sacrificed and the tumor tissues are dissected from the mice and weighed. The tumor growth inhibition rate is a percentage calculated using the formula: tumor growth inhibition rate=(average weight of the tumor in the negative control−average weight of the tumor treated with test compound)/average weight of the tumor in the negative control.

MCF7 cells = assay: Cell apoptosis assay in ER-positive breast cancer MCF7 cells (cell number after treatment); format: cell-based, human; settings: 10 days
Description: Cell Apoptosis Assay in ER-Positive Breast Cancer MCF7 Cells
MCF7 cell line is a breast cancer cell line that strongly expresses ER-α66, ER-α46 and ER-α36 (Relevance of breast cancer cell lines as models for breast tumours: an update. Marc Lacroix, Guy Leclercq, Breast Cancer Research and Treatment (2004) 83, 249-289; Wang et al., Proc. Natl. Acad. Sci. U.S.A. 103:9063-9068 (2006)). MCF7 cells obtained from ATCC are maintained in DMEM/F12 medium (Invitrogen) supplemented with 10% fetal calf serum at 37° C. in a 5% CO2 atmosphere. The MCF7 cells are treated with the test compounds 6, 8, 14, 22, 27, 29, 30, 31, 36 and 38 at concentrations from 1 μM to 25 μM to test the effect of these compounds on MCF7 cell growth for 10 days. The control assay is conducted with MCF7 cells under the same assay conditions except that no test compound is added. Treated cells are examined under a Nikon TS100 inverted microscope and photographed for morphological changes.

[2] = MCF-7, tested compound concentration 1 μM
[3] = MCF-7, tested compound concentration 5 μM
[4] = MCF-7, tested compound concentration 10 μM
[5] = MCF-7, tested compound concentration 15 μM
[6] = MCF-7, tested compound concentration 25 μM

| Structure (SMILES) | inhibition in vivo at 35 mg/kg [1] | Cell Number (×10^4) (MCF7 cells; [2]) | Cell Number (×10^4) (MCF7 cells; [3]) | Cell Number (×10^4) (MCF7 cells; [4]) | Cell Number (×10^4) (MCF7 cells; [5]) | Cell Number (×10^4) (MCF7 cells; [6]) |
| --- | --- | --- | --- | --- | --- | --- |
| COc1ccc(-c2oc3c(CC=C(C)C)c(O)cc(O)c3c(=O)c2OC)cc1OC [Compound 5, 5,7-dihydroxy-3-methoxy-2-(3,4-dimethoxyphenyl)-8-(3-methylbut-2-enyl)-4H-chromen-4-one] | 26% |  |  |  |  |  |
| COc1ccc(-c2oc3c(CCC(C)(C)O)c(O)cc(O)c3c(=O)c2OC)cc1OC [Compound 6, 5,7-dihydroxy-8-(3-hydroxy-3-methylbutyl)-3-methoxy-2-(3,4-dimethoxyphenyl)-4H-chromen-4-one] | 44% | 18.35 ×10^4 | 8.97 ×10^4 | 3.95 ×10^4 | 3.9 ×10^4 | 3.87 ×10^4 |
| COc1ccc(-c2oc3c(CCC(C)(C)N)c(O)cc(O)c3c(=O)c2O)cc1 [Compound 8, 8-(3-amino-3-methylbutyl)-3,5,7-trihydroxy-2-(4-methoxyphenyl)-4H-chromen-4-one] | 62% | 28.75 ×10^4 | 15.35 ×10^4 | 10.1 ×10^4 | 6.45 ×10^4 | 0.25 ×10^4 |
| COc1c(-c2ccc(Cl)cc2)oc2c(CC=C(C)C)c(O)cc(O)c2c1=O [Compound 14, 2-(4-chlorophenyl)-5,7-dihydroxy-3-methoxy-8-(3-methylbut-2-enyl)-4H-chromen-4-one] | 37% | 30.05 ×10^4 | 14.54 ×10^4 | 2.51 ×10^4 | 0 ×10^4 | 0 ×10^4 |
| CC(C)=CCc1c(O)cc(O)c2c(=O)cc(-c3ccc(Cl)cc3)oc12 [Compound 22, 2-(4-chlorophenyl)-5,7-dihydroxy-8-(3-methylbut-2-enyl)-4H-chromen-4-one] | 66% | 39.0 ×10^4 | 21.6 ×10^4 | 15.6 ×10^4 | 4.2 ×10^4 | 0.6 ×10^4 |
| COc1ccc(-c2cc(=O)c3c(O)cc(O)c(CC=C(C)C)c3o2)cc1Cl [Compound 27, 2-(3-chloro-4-methoxyphenyl)-5,7-dihydroxy-8-(3-methylbut-2-enyl)-4H-chromen-4-one] |  | 59.4 ×10^4 | 45.2 ×10^4 | 5.4 ×10^4 | 1.05 ×10^4 | 0 ×10^4 |
| CC(C)=CCc1c(O)ccc2c(=O)cc(-c3ccc(C(F)(F)F)cc3)oc12 [Compound 29, 2-(4-(trifluoromethyl)phenyl)-7-hydroxy-8-(3-methylbut-2-enyl)-4H-chromen-4-one] |  | 27.9 ×10^4 | 30.1 ×10^4 | 24.3 ×10^4 | 23.4 ×10^4 | 12.3 ×10^4 |
| CC(C)=CCc1c(O)ccc2c(=O)cc(-c3ccc(C)cc3)oc12 [Compound 30, 7-hydroxy-8-(3-methylbut-2-enyl)-2-(4-methylphenyl)-4H-chromen-4-one] |  | 21.1 ×10^4 | 10.8 ×10^4 | 5.8 ×10^4 | 3.6 ×10^4 | 1.5 ×10^4 |
| CC(C)=CCc1c(O)ccc2c(=O)cc(-c3ccc(F)cc3)oc12 [Compound 31, 2-(4-fluorophenyl)-7-hydroxy-8-(3-methylbut-2-enyl)-4H-chromen-4-one] |  | 24.0 ×10^4 | 25.5 ×10^4 | 27.25 ×10^4 | 9.6 ×10^4 | 7.5 ×10^4 |
| CC(C)=CCc1c(O)ccc2c(=O)cc(-c3ccncc3)oc12 [Compound 36, 7-hydroxy-8-(3-methylbut-2-enyl)-2-(pyridin-4-yl)-4H-chromen-4-one] | 56% | 25.6 ×10^4 | 14.8 ×10^4 | 10.65 ×10^4 | 3.65 ×10^4 | 1.4 ×10^4 |
| CC(C)=CCc1c(O)ccc2c(=O)cc(-c3cccnc3)oc12 [Compound 38, 7-hydroxy-8-(3-methylbut-2-enyl)-2-(pyridin-3-yl)-4H-chromen-4-one] | 24% | 27.8 ×10^4 | 19.66 ×10^4 | 13.8 ×10^4 | 10.1 ×10^4 | 2.6 ×10^4 |
| CC/C(=C(\c1ccccc1)c1ccc(OCCN(C)C)cc1)c1ccccc1 [Tamoxifen, reference compound] | 40 to 50% |  |  |  |  |  |
